Results on 13 molecules are retold here after ChEMBL document CHEMBL1201862, “PubChem BioAssay data set” (2004).

Among the test systems are DLD-1; DMS-273; EKVX; HCT-15; HOP-62; KM-20L2; LOX IMVI; NCI-H23; NCI-H522; OVCAR-3; RXF 393; SK-MEL-2; SK-MEL-5; SK-OV-3; SNB-19; SNB-78; RPMI-8226; XF498; MCF7; Hs-578T.
What all share (experiment): NCI tumour cell line growth inhibition, 48 h

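Step 1: Grow cells in 96-well plates. Step 2: Expose to compound for 48 hours at 5 concentrations. Step 3: Interpolate endpoints linearly; if unreached, use highest concentration. Abbreviation: GI50, concentration required for 50% inhibition of growth.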 Activity calls are given as the source filed them. No stated cut-off is given here; in the data, active = GI50 up to about 1.1 µM and inactive = higher. Non-standard residues stand in square brackets, D forms with d. Residues, ends and D or L forms follow the SMILES beside them. *: point of attachment. Ac5c = NC1(C(=O)O)CCCC1; Cbz = O=C(OCc1ccccc1)*; Boc = CC(C)(C)OC(=O)*; tBu = CC(C)(C)*

As to `COc1cc(/C=C(\C)c2ccc3c(c2)OCO3)cc(OC)c1OC`, the GI50 in the assay with DLD-1 was 18.5 µM (inactive); in the assay with DMS-273, 26 µM (inactive); in the assay with EKVX, 10.4 µM (inactive); in the assay with HCT-15, 26.1 µM; in the assay with HOP-62, 70 µM (inactive); in the assay on KM-20L2, 32.4 µM (inactive). The GI50 is 16 µM (inactive) in the assay on LOX IMVI; 37.5 µM (inactive) in the assay with NCI-H23; 20.2 µM (inactive) in the assay with NCI-H522; 34.8 µM (inactive) with OVCAR-3; 34.1 µM (inactive) in the assay with RXF 393; 23.4 µM (inactive) with SK-MEL-2. For the same molecule, the GI50 in the assay on SK-MEL-5 was 11.7 µM (inactive); with SK-OV-3, 28 µM (inactive); in the assay on SNB-19, 50.7 µM (inactive); in the assay on SNB-78 it was 37.9 µM (inactive).
On to `CC(=O)OC1(C#N)CC2OC1C1C2N=NN1C(=O)OC(C)(C)C` (stereo not drawn), for which the GI50 in the assay on DLD-1 is 20.4 µM (inactive); in the assay on DMS-273, 29 µM (inactive); in the assay on EKVX, 68.2 µM (inactive); in the assay with HCT-15, 21.4 µM; with HOP-62, > 100 µM (inactive); in the assay on KM-20L2 it was 55.8 µM (inactive). For the same molecule, the GI50 in the assay on LOX IMVI is 11.5 µM (inactive); in the assay with NCI-H23 it was 29.6 µM (inactive); in the assay with NCI-H522, > 100 µM (inactive); with OVCAR-3, 47.6 µM (inactive); in the assay on RPMI-8226, 39.9 µM (inactive); in the assay on RXF 393 it was 40.6 µM (inactive). Besides, the figures for the GI50 with SK-MEL-2, in the assay with SK-MEL-5 and with SNB-78 were 23.4 µM (inactive), 35.3 µM (inactive) and 26.9 µM (inactive), respectively.
Turning to `Cc1nc2ccccc2c(=O)n1/N=C(\N=N\c1ccccc1Cl)c1ccccc1Cl`, the GI50 was 67.5 µM (inactive) with DLD-1; 44.8 µM (inactive) in the assay with DMS-273; 28.8 µM (inactive) in the assay on EKVX; 57.1 µM in the assay with HCT-15; 34.8 µM (inactive) in the assay with HOP-62; 76.7 µM (inactive) with KM-20L2. In addition, the GI50 in the assay with LOX IMVI was 86.5 µM (inactive); in the assay on NCI-H23, 34 µM (inactive); with NCI-H522 it was 22.9 µM (inactive); in the assay on RPMI-8226, 30.1 µM (inactive); with RXF 393, 17.9 µM (inactive); with SK-MEL-5, 63.1 µM (inactive). The GI50 with SK-OV-3 was 22.9 µM (inactive); in the assay with XF498, 11.9 µM (inactive).
As to `CCCN1CN(C(C(=O)N[C@@H]2C(=O)N3C(C(=O)O)=C(C)CSC23)c2ccccc2)CSC1=S` (stereo partly drawn), the GI50 with DLD-1 is > 100 µM (inactive); in the assay on DMS-273, > 100 µM (inactive); with EKVX it was > 100 µM (inactive); in the assay on HCT-15, 42 µM; in the assay on HOP-62 it was > 100 µM (inactive); in the assay with KM-20L2 it was > 100 µM (inactive). For the same molecule, the GI50 in the assay with LOX IMVI is 47.4 µM (inactive); with NCI-H23 it was > 100 µM (inactive); with NCI-H522, 23 µM (inactive); in the assay on OVCAR-3, 68.1 µM (inactive); with RPMI-8226, 40.9 µM (inactive); with RXF 393, 25.9 µM (inactive). For the same molecule, the GI50 in the assay on SK-MEL-2, with SK-MEL-5, in the assay on SK-OV-3, with SNB-19 and in the assay on SNB-78 was > 100 µM (inactive) in each case.
Consider `O=C(NO)C(=O)Nc1ccc(Cl)cc1[N+](=O)[O-]`, for which the GI50 in the assay on DLD-1 was > 100 µM (inactive); in the assay with DMS-273 it was > 100 µM (inactive); with EKVX, 33.9 µM (inactive); in the assay on HCT-15 it was over 100 µM; with HOP-62 it was > 100 µM (inactive); in the assay on KM-20L2, > 100 µM (inactive). The GI50 with LOX IMVI was 51.9 µM (inactive); in the assay with NCI-H23 it was > 100 µM (inactive); with NCI-H522, > 100 µM (inactive); with OVCAR-3, > 100 µM (inactive); in the assay with RPMI-8226, > 100 µM (inactive); in the assay on RXF 393, > 100 µM (inactive). Besides, the GI50 in the assay on SK-MEL-2, in the assay on SK-MEL-5, with SK-OV-3, in the assay with SNB-19 and with SNB-78 was > 100 µM (inactive) each time.
Regarding `O=c1c2ccccc2nc(-c2ccccc2)n1NC(=S)Nc1ccccc1`, the GI50 in the assay on DLD-1 was > 100 µM (inactive); in the assay with DMS-273, > 100 µM (inactive); in the assay on HCT-15, over 100 µM; in the assay with HOP-62, > 100 µM (inactive); in the assay on LOX IMVI it was 91 µM (inactive); in the assay with NCI-H23, > 100 µM (inactive). Also, the GI50 in the assay with NCI-H522 was > 100 µM (inactive); with RPMI-8226, > 100 µM (inactive); in the assay on RXF 393, > 100 µM (inactive); with SK-MEL-2 it was > 100 µM (inactive); in the assay on SK-MEL-5, 89.1 µM (inactive); in the assay on SK-OV-3 it was > 100 µM (inactive).
In the case of `Cn1c(=O)n(C2(C)C[Se]C2)c2ccccc21`, the GI50 in the assay on DLD-1 was > 100 µM (inactive); with DMS-273, > 100 µM (inactive); with EKVX it was > 100 µM (inactive); in the assay with HCT-15, over 100 µM; with HOP-62, > 100 µM (inactive); with KM-20L2, > 100 µM (inactive). Moreover, the GI50 in the assay with LOX IMVI, in the assay on NCI-H23, with NCI-H522, in the assay with RPMI-8226, in the assay on RXF 393 and with SK-MEL-2 was > 100 µM (inactive) throughout. Moreover, the GI50 with SK-MEL-5, with SK-OV-3, in the assay on SNB-19 and in the assay on SNB-78 was > 100 µM (inactive) in each case.
`CC1=NNC(=O)C2CCC(=O)N12` (stereo not drawn): the GI50 was > 100 µM (inactive) in the assay with DLD-1; > 100 µM (inactive) in the assay with DMS-273; > 100 µM (inactive) with EKVX; over 100 µM in the assay on HCT-15; > 100 µM (inactive) in the assay with HOP-62; 49.2 µM (inactive) with KM-20L2. In addition, the GI50 with NCI-H522, in the assay on OVCAR-3, with RPMI-8226, with RXF 393, with SK-MEL-2 and with SK-MEL-5 was > 100 µM (inactive) in each case. Also, the GI50 with SK-OV-3, in the assay on SNB-19 and in the assay on SNB-78 was > 100 µM (inactive) throughout.
For `OC12c3ccccc3C1CCCCCCCCCC21OCCO1` (stereo not drawn), the GI50 with DMS-273 is > 100 µM (inactive); in the assay on HCT-15 it was over 100 µM; with HOP-62, > 100 µM (inactive); with KM-20L2, > 100 µM (inactive); in the assay with LOX IMVI, > 100 µM (inactive); in the assay on NCI-H23, > 100 µM (inactive). For the same molecule, the GI50 in the assay with NCI-H522, in the assay with OVCAR-3, in the assay with RPMI-8226, in the assay on RXF 393, in the assay on SK-MEL-2 and in the assay on SK-MEL-5 was > 100 µM (inactive) in each case. For the same molecule, the GI50 with SK-OV-3, in the assay with SNB-19 and with SNB-78 was > 100 µM (inactive) in each case.
In the case of `C=C1C(=O)O[C@@H]2OC3(C)CCC4C(C)CCC1C42OO3` (stereo partly drawn), the GI50 in the assay on DLD-1 is 1.93 µM (inactive); in the assay with DMS-273 it was 3.41 µM (inactive); in the assay on EKVX it was 11.4 µM (inactive); with HCT-15 it was 1.87 µM; with HOP-62, 22.1 µM (inactive); in the assay with LOX IMVI, 2.36 µM (inactive). Besides, the GI50 with MCF7 is 3.39 µM (inactive); in the assay with NCI-H23, 5.6 µM (inactive); in the assay on NCI-H522, 1.7 µM (inactive); in the assay with OVCAR-3 it was 3.41 µM (inactive); in the assay on RPMI-8226, 1.42 µM (inactive); with SK-MEL-2, 2.18 µM (inactive). Further, the GI50 was 4.88 µM (inactive) in the assay with SK-MEL-5, 20.3 µM (inactive) in the assay on SK-OV-3, 14.7 µM (inactive) with SNB-19 and 2.16 µM (inactive) in the assay on XF498.
For `COC(=O)C1(NC(=O)C(Cc2ccccc2)NC(=O)C(NC(=O)C(CCCCNC(=O)OC(C)(C)C)NC(=O)C(Cc2c[nH]c3ccccc23)NC(=O)C(Cc2ccccc2)NC(=O)OCc2ccccc2)C(C)OC(C)(C)C)CCCC1` (stereo not drawn) (Cbz-FWK(Boc)T(tBu)F[Ac5c]-OMe; configuration not given here), the GI50 is > 100 µM (inactive) in the assay with EKVX; over 100 µM in the assay on HCT-15; 65 µM (inactive) in the assay on HOP-62; > 100 µM (inactive) in the assay on Hs-578T; 80.9 µM (inactive) in the assay on LOX IMVI; > 100 µM (inactive) in the assay with MCF7. The GI50 in the assay with NCI-H23 was > 100 µM (inactive); in the assay with NCI-H522, 19 µM (inactive); with OVCAR-3, > 100 µM (inactive); with RPMI-8226, > 100 µM (inactive); in the assay with RXF 393, > 100 µM (inactive); in the assay on SK-MEL-2 it was 6.61 µM (inactive). Besides, the GI50 in the assay on SK-MEL-5 was 3.96 µM (inactive); in the assay with SK-OV-3, 93.3 µM (inactive); in the assay with SNB-19 it was 52.2 µM (inactive).
As to `Nc1ccccc1NC(=O)c1ccc(CNC(=O)OCc2cccnc2)cc1` [ENTINOSTAT], the GI50 was 1.72 µM (inactive) in the assay with EKVX; 3.56 µM with HCT-15; 2 µM (inactive) with HOP-62; 3.31 µM (inactive) in the assay on Hs-578T; 0.859 µM (active) in the assay on LOX IMVI; 0.845 µM (active) in the assay on MCF7. The GI50 in the assay on NCI-H23 was 1.38 µM (inactive); with NCI-H522, 0.908 µM (active); in the assay with OVCAR-3, 1.51 µM (inactive); with RPMI-8226, 0.158 µM (active); with RXF 393, 2.16 µM (inactive); with SK-MEL-2, 0.424 µM (active). Moreover, the GI50 in the assay with SK-MEL-5 is 0.624 µM (active); with SK-OV-3, 4.9 µM (inactive); in the assay on SNB-19 it was 2.65 µM (inactive).
Regarding `CC1CC(C)(O)CC(C(O)CC2CC(=O)NC(=O)C2)C1=O` (stereo not drawn) [RESACTIN A], the GI50 in the assay on EKVX was 0.0505 µM (active); in the assay with HCT-15 it was 0.0989 µM; in the assay with HOP-62, 0.027 µM (active); in the assay on Hs-578T, < 0.0126 µM (active); in the assay on LOX IMVI, 0.0283 µM (active); in the assay with MCF7, 0.0379 µM (active). Also, the GI50 is 0.0413 µM (active) in the assay on NCI-H23; < 0.0135 µM (active) in the assay on NCI-H522; 0.0566 µM (active) in the assay on OVCAR-3; 0.0456 µM (active) in the assay with RPMI-8226; 0.0344 µM (active) with RXF 393; 0.0585 µM (active) in the assay with SK-MEL-2. Moreover, the GI50 with SK-MEL-5 is 0.0132 µM (active); with SK-OV-3, 0.0818 µM (active); with SNB-19 it was 0.0303 µM (active).
